Laboratory results as given in patent US11691992B2 (Anacor Pharmaceuticals, Inc., priority 2017, dated 2023).
Read-outs that look alike come from different tables or passages of the source.

Assays:
Assay type in all cases: cell-based
[1] = test system: bloodstream-form trypanosome T. brucei brucei 427 strain; assay: Trypanosoma brucei brucei high-throughput screening assay (resazurin)
Protocol: Example 105. Trypanosoma brucei brucei High-Throughput Screening Assay Procedure
All experiments were conducted with the bloodstream-form trypanosome T. brucei brucei 427 strain obtained from Seattle Biomedical Research Institute (Seattle, Wash.). Parasites were cultured in T-25 vented cap flasks and kept in humidified incubators at 37° C. and 5% CO2. The parasite culture media was complete HMI-9 medium containing 10% FBS, 10% Serum Plus medium and penicillin/streptomycin. To ensure log growth phase, trypanosomes were sub-cultured at appropriate dilutions every 2-3 days. Approximately 50 microliters of log phase cultures were diluted 1:10 in HMI-9 and 10 μL of the diluted culture was removed and counted using a hemocytometer to determine parasite concentration. Parasites were diluted by addition of an appropriate volume of HMI-9 to achieve a final parasite concentration of 2×10^5/mL. Compounds of the invention to be tested were serially diluted in DMSO and 0.5 μL added to 49.5 μL HMI-9 in triplicate 96-well plates using a Biomek NX liquid handler. Parasites from the diluted stock were added to each well (50 μL) using a Multidrop 384 dispenser to give a final concentration of 1.0×10^5/ml parasites in […] for DMSO. Trypanosomes were incubated with compounds for 72 hrs at 37° C. with 5% CO2. Resazurin (20 μL of 12.5 mg/ml stock) from Sigma-Aldrich was added to each well and plates were incubated for an additional 2-4 hrs. Assay plates were read using an EnVision plate reader at an excitation wavelength of 544 nm and emission of 590 nm. Triplicate data points were averaged to generate sigmoidal dose response curve and determine IC50 values using XLfit curve fitting software from IDBS (Guildford, UK).

[2] = test system: bloodstream forms of T. b. rhodesiense STIB 900; assay: T. brucei rhodesiense STIB 900 growth inhibition assay; conditions: Trypanosoma brucei, 72 h
Outline: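 Bloodstream-form STIB 900 (10^4/well) were cultured in supplemented MEM with 15% horse serum and compound (90 to 0.123 μg/ml, 3-fold steps) for 72 h at 37 °C, 5% CO2. Viability was read by Alamar Blue fluorescence (ex 536/em 588 nm) after a further 2-4 h.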

[3] = test system: L. infantum MHOM/MA(BE)/67 amastigotes in primary peritoneal mouse macrophages; assay: Leishmania infantum intracellular amastigote assay in mouse macrophages; conditions: Macrophage, 120 h
Outline: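 Amastigotes harvested from infected hamster spleen infected primary peritoneal mouse macrophages (5×10^5 amastigotes/well, 2 h, 37 °C). Compounds then present 5 d at 37 °C, 5% CO2. Parasite burden counted by microscopy after Giemsa staining, as % of untreated controls; IC50 from sigmoidal variable-slope fit.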

[4] = test system: IL3000 T. congolense (drug sensitive) strain; assay: In vitro Alamar Blue 72 h drug sensitivity assay for T. congolense
Outline: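 Bloodstream-form trypanosomes in HMI medium with 20% bovine serum, exposed to compound for 69 h at 34 °C, 5% CO2, then resazurin for 3 h more. Fluorescence read at 536/588 nm. IC50 from 11-point sigmoidal dose-response curves, at least three independent runs.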

[5] = test system: TdTomato-modified T. cruzi (CL strain) in Vero cells; assay: In vitro IC50 measurement of T. cruzi amastigote killing using TdTomato-modified T. cruzi (CL strain); conditions: Trypanosoma cruzi, 72 h, fluorescence, read-out: IC50: I Org. amastigote Growth T. cruzi CL TdTomato, 3 d
Outline: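 Vero cells were infected with tdTomato-expressing CL-strain parasites and dosed at 5 uM–5 nM. Fluorescence (ex 544/em 612 nm) was read at day 0 and again after 72 h at 37 °C, with day 0 values subtracted. IC50 and IC90 came from nonlinear regression.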

[6] = test system: Trypanosoma brucei rhodesiense STIB 900 strain; assay: Trypanosoma brucei rhodesiense STIB 900 screening assay; conditions: STIB 900 bloodstream forms, 72 h, Alamar Blue, protocol of Example 114, read-out: Swiss TPH T b rhodesiense IC50
Protocol: Example 114. Trypanosoma brucei rhodesiense STIB 900 Screening Assay Procedure
The Trypanosoma brucei rhodesiense STIB 900 strain was isolated in 1982 from a human patient in Tanzania and after several mouse passages cloned and adapted to axenic culture conditions (Baltz, et al., EMBO Journal 4: 1273-1277 (1985); Thuita, et al., Acta Tropica 108: 6-10 (2008)). Minimum Essential Medium (50 μL) supplemented with 25 mM HEPES, 1 g/L additional glucose, 1% MEM non-essential amino acids (100×), 0.2 mM 2-mercaptoethanol, 1 mM Na-pyruvate and 15% heat inactivated horse serum was added to each well of a 96-well microtiter plate. Serial drug dilutions of seven 3-fold steps covering a range from 90 to 0.123 μg/mL were prepared. Then 10^4 bloodstream forms of T. b. rhodesiense STIB 900 in 50 μL was added to each well and the plate incubated at 37° C. under a 5% CO2 atmosphere for 72 h. 10 μL Alamar Blue (resazurin, 12.5 mg in 100 mL double-distilled water) was then added to each well and incubation continued for a further 2-4 h (Raz, et al., Acta Tropica 68: 139-47 (1997)). Then the plates were read with a Spectramax Gemini XS microplate fluorometer (Molecular Devices Corporation, Sunnyvale, Calif., USA) using an excitation wavelength of 536 nm and an emission wavelength of 588 nm. Data were transferred into the graphic program Softmax Pro (Molecular Devices), which calculated IC50 values.

[7] = bloodstream form, 72 hrs incubation, resazurin, read-out: IC50: I Org. Growth T. brucei brucei SBRI 427, 3 d
[8] = bloodstream forms, Alamar Blue, protocol of Example 110, read-out: IC50: I Org. Growth T. brucei rhodesiense STIB 900, 3 d
[9] = amastigotes in primary peritoneal mouse macrophages, 5 d, Giemsa staining, read-out: Inhibition of Organism Growth in Leishmania infantum MHOM/MA/BE/67, 5 d
[10] = Trypanosoma congolense; bloodstream form, 69 h + 3 h resazurin, 34° C.; classes A-C; read-out: IC50: I Org. Growth T. congolense IL-3000, 3 d
[11] = 72 h, read-out: IC50: I Org. Growth T. brucei brucei SBRI 427, 3 d [uM]
[12] = read-out: IC50: I Org. Growth T. brucei rhodesiense STIB 900, 3 d [uM]
[13] = read-out: Inhibition of Organism Growth in Leishmania infantum MHOM/MA/BE/67, 5 d [uM]
[14] = Trypanosoma congolense; read-out: inhibition of T. congolense IL-3000 growth at a concentration of 1.0 μM (classes D, E)

| SMILES | IC50 [1, 7] [µM] | IC50 [2, 8] [µM] | IC50 [3, 9] [µM] | IC50 [4, 10] [nM] | IC50 [6] [nM] | other results |
| --- | --- | --- | --- | --- | --- | --- |
| Cn1nc(C(=O)Nc2ccc3c(c2)B(O)OC3)nc1-c1ccccc1 [Example 102, N-(1-Hydroxy-1,3-dihydrobenzo[c][1,2]oxaborol-6-yl)-1-methyl-5-phenyl-1H-1,2,4-triazole-3-carboxamide] | 0.075 to 0.15 | < 0.1 | < 3 | – | – | – |
| COc1cccc(-n2nnc(C(=O)Nc3ccc4c(c3)B(O)OC4)c2C)n1 [Example 65, N-(1-hydroxy-1,3-dihydrobenzo[c][1,2]oxaborol-6-yl)-1-(6-methoxypyridin-2-yl)-5-methyl-1H-1,2,3-triazole-4-carboxamide] | – | < 0.1 | < 3 | < 100 | < 100 | IC50 [5]: < 600 nM |
| O=C(Nc1ccc2c(c1)B(O)OC2)c1nc(-c2ccc(F)cc2)n[nH]1 [Example 99, 3-(4-Fluorophenyl)-N-(1-hydroxy-1,3-dihydrobenzo[c][1,2]oxaborol-6-yl)-1H-1,2,4-triazole-5-carboxamide] | – | – | – | – | – | IC50 [1, 11]: < 0.075 µM; IC50 [2, 12]: 0.1 to 0.3 µM; IC50 [3, 13]: < 3 µM |
| O=C(Nc1ccc2c(c1)B(O)OC2)c1nc(-c2ccccc2)n[nH]1 [Example 101, N-(1-hydroxy-1,3-dihydrobenzo[c][1,2]oxaborol-6-yl)-3-phenyl-1H-1,2,4-triazole-5-carboxamide] | 0.075 to 0.15 | – | – | – | – | inhibition at 1 µM [4, 14]: > 75% |
| Cc1c(C(=O)Nc2ccc3c(c2)B(O)OC3)nnn1-c1ccc(Cl)cc1 [Example 90, 1-(4-chlorophenyl)-N-(1-hydroxy-1,3-dihydrobenzo[c][1,2]oxaborol-6-yl)-5-methyl-1H-1,2,3-triazole-4-carboxamide] | 0.075 to 0.15 | – | – | – | – | – |
| Cn1nc(-c2ccc(F)cc2)nc1C(=O)Nc1ccc2c(c1)B(O)OC2 [Example 97, 3-(4-fluorophenyl)-N-(1-hydroxy-1,3-dihydrobenzo[c][1,2]oxaborol-6-yl)-1-methyl-1H-1,2,4-triazole-5-carboxamide] | 0.151 to 10 | – | – | – | – | inhibition at 1 µM [4, 14]: < 75% |
| O=C(Nc1ccc2c(c1)B(O)OC2)c1nc(-c2cccnc2)n[nH]1 [Example 98, N-(1-hydroxy-1,3-dihydrobenzo[c][1,2]oxaborol-6-yl)-3-(pyridin-3-yl)-1H-1,2,4-triazole-5-carboxamide] | – | – | – | – | – | IC50 [1, 11]: 0.151 to 10 µM |
| Cn1nc(-c2ccccc2)nc1C(=O)Nc1ccc2c(c1)B(O)OC2 [Example 96, N-(1-hydroxy-1,3-dihydrobenzo[c][1,2]oxaborol-6-yl)-1-methyl-3-phenyl-1H-1,2,4-triazole-5-carboxamide] | 0.151 to 10 | – | – | – | – | inhibition at 1 µM [4, 14]: < 75% |
| Cc1cccc(-n2nnc(C(=O)Nc3ccc4c(c3)B(O)OC4)c2C)n1 [Example 81, N-(1-hydroxy-1,3-dihydrobenzo[c][1,2]oxaborol-6-yl)-5-methyl-1-(6-methylpyridin-2-yl)-1H-1,2,3-triazole-4-carboxamide] | – | 0.1 to 0.3 | 3 to 19.9 | < 100 | 100 to 250 | IC50 [5]: 1100 to 10000 nM |
| Cc1cccc(-n2cc(C(=O)Nc3ccc4c(c3)B(O)OC4)nn2)n1 [Example 57, N-(1-hydroxy-1,3-dihydrobenzo[c][1,2]oxaborol-6-yl)-1-(6-methylpyridin-2-yl)-1H-1,2,3-triazole-4-carboxamide] | – | < 0.1 | < 3 | < 100 | < 100 | IC50 [5]: < 600 nM |
| Cn1nc(C(=O)Nc2ccc3c(c2)B(O)OC3)nc1-c1ccc(F)cc1 [Example 100, 5-(4-Fluorophenyl)-N-(1-hydroxy-1,3-dihydrobenzo[c][1,2]oxaborol-6-yl)-1-methyl-1H-1,2,4-triazole-3-carboxamide] | 0.075 to 0.15 | – | – | – | – | – |
| Cn1nc(C(=O)Nc2ccc3c(c2)B(O)OC3(C)C)nc1-c1ccccc1 [Example 103, N-(1-hydroxy-3,3-dimethyl-1,3-dihydrobenzo[c][1,2]oxaborol-6-yl)-1-methyl-5-phenyl-1H-1,2,4-triazole-3-carboxamide] | – | 0.31 to 10 | 3 to 19.9 | – | < 100 | – |
| O=C(Nc1ccc2c(c1)B(O)OC2)c1nc(-c2ccccn2)n[nH]1 [Example 94, N-(1-hydroxy-1,3-dihydrobenzo[c][1,2]oxaborol-6-yl)-3-(pyridin-2-yl)-1H-1,2,4-triazole-5-carboxamide] | – | – | – | – | – | IC50 [1, 11]: < 0.075 µM; inhibition at 1 µM ([4]; Trypanosoma congolense, read-out: inhibition of T. congolense IL-3000 growth at a concentration of 1.0 μM (classes D, E)): > 75%; IC50 [2, 12]: < 0.1 µM; IC50 [3, 13]: 3 to 19.9 µM |
| Cn1nc(C(=O)Nc2ccc3c(c2)B(O)OC3)nc1-c1ccccn1 [Example 80, N-(1-hydroxy-1,3-dihydrobenzo[c][1,2]oxaborol-6-yl)-1-methyl-5-(pyridin-2-yl)-1H-1,2,4-triazole-3-carboxamide] | < 0.075 | 0.1 to 0.3 | < 3 | 100 to 300 | – | – |
| O=C(Nc1ccc2c(c1)B(O)OC2)c1cn(-c2cccnc2)nn1 [Example 63, N-(1-hydroxy-1,3-dihydrobenzo[c][1,2]oxaborol-6-yl)-1-(pyridin-3-yl)-1H-1,2,3-triazole-4-carboxamide] | – | 0.1 to 0.3 | 20 to 100 | < 100 | 100 to 250 | IC50 [5]: 1100 to 10000 nM |
| Cn1nc(-c2ccccn2)nc1C(=O)Nc1ccc2c(c1)B(O)OC2 [Example 95, N-(1-hydroxy-1,3-dihydrobenzo[c][1,2]oxaborol-6-yl)-1-methyl-3-(pyridine-2-yl)-1H-1,2,4-triazole-5-carboxamide] | – | – | – | – | – | IC50 [1, 11]: 0.151 to 10 µM |
